The source made the active and inactive calls. The rule behind the calls is not given here.
What was measured:
[1] = target: Mitogen-activated protein kinase; ERK1/ERK2 (Homo sapiens, UniProt P27361+P28482); assay: Inhibition of ERK1/2 phosphorylation in human A-375 cells upto 10 uM incubated for 1 hrs in the absence of UV irradiation by Western blot analysis; type: cell-based
[2] = Photoactivation of the compound assessed as photocleavage in the presence of 365 nm UV irradiation by HPLC based LC-MS analysis
[3] = target: T1, Dual specificity mitogen-activated protein kinase kinase 1 (Homo sapiens, UniProt Q02750); assay: Inhibition of MEK1 (unknown origin) incubated for 1 hrs in the presence of ATP by FRET-based Z'-Lyte assay
[4] = target: Serine/threonine-protein kinase B-raf (Homo sapiens) (UniProt P15056); assay: Inhibition of recombinant human BRAF at 1 uM
[5] = Photoactivation of the compound assessed as photocleavage by measuring decay half-life in the presence of 365 nm UV irradiation by HPLC based LC-MS analysis
[6] = system: HCT-116; assay: Antiproliferative activity against human HCT-116 cells harboring KRAS G13D mutant assessed as cell growth inhibition incubated for 72 hrs in the absence of UV irradiation by CellTiter-Glo luminescent assay; type: functional; conditions: HCT-116, light or radiation study
[7] = target: T2, CYP1A2 (Homo sapiens, UniProt P05177); assay: Inhibition of CYP1A2 in human microsomes at 10 uM in the presence of NADPH relative to control; type: ADME, Microsome
T2 sequence (P05177 whole entry): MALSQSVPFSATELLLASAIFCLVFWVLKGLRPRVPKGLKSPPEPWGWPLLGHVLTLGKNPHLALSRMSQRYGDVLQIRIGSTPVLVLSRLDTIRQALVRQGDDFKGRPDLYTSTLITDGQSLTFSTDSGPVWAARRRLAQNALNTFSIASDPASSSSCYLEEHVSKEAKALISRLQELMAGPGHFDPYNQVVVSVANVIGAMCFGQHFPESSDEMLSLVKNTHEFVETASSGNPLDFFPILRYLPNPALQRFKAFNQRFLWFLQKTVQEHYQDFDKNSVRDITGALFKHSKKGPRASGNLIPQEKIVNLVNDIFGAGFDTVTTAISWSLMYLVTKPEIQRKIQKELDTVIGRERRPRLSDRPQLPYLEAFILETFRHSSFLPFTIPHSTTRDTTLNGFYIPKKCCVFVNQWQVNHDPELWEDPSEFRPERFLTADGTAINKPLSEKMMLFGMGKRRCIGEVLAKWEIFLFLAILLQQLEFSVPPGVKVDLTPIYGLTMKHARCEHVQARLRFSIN

[8] = Metabolic stability in human liver microsomes assessed as parent compound remaining measured after 1 hrs in the presence of NADPH regenerating system; type: ADME, Microsome; conditions: read-out: Stability
[9] = system: A-375; assay: Inhibition of MEK/ERK/RSK signaling in human A-375 cells assessed as inhibition of ERK phosphorylation at 5 nM in the presence of 365 nm light irradiation for 30 sec to 5 min by Western blot analysis; type: cell-based
[10] = Metabolic stability in human liver microsomes assessed as intrinsic clearance in the presence of NADPH regenerating system; type: ADME, Microsome; conditions: read-out: CLH
[11] = species on record: Homo sapiens; assay: Inhibition of recombinant human PI3K at 1 uM
[12] = target: Ribosomal protein S6 kinase alpha-1 (Homo sapiens) (UniProt Q15418); assay: Inhibition of recombinant human RSK1 at 1 uM
[13] = target: Mitogen-activated protein kinase 3 (Homo sapiens) (UniProt P27361); assay: Inhibition of recombinant human ERK1 at 1 uM
[14] = Cytotoxicity against HEK293T cells assessed as cell growth inhibition incubated for 72 hrs by CellTiter-Glo luminescent assay; type: toxicity, cell-based, HEK-293T; conditions: human
[15] = target: T1, Dual specificity mitogen-activated protein kinase kinase 1; assay: Inhibition of recombinant human MEK1 at 1 uM
[16] = Photoactivation of the compound assessed as fold change in caging efficiency
[17] = system: HCT-116; assay: Antiproliferative activity against human HCT-116 cells harboring KRAS G13D mutant assessed as cell growth inhibition preincubated with compound for 1 hrs followed by UV irradiation for 5 mins and measured 72 hrs post compound treatment by CellTiter-Glo luminescent assay; type: functional; conditions: HCT-116, light or radiation study
[18] = system: A-375; assay: Inhibition of MEK/ERK/RSK signaling in human A-375 cells at 5 nM in the absence of light irradiation by Western blot analysis; type: cell-based
[19] = Metabolic stability in human liver microsomes assessed as half-life in the presence of NADPH regenerating system; type: ADME, Microsome
[20] = system: A-375; assay: Antiproliferative activity against CM-Dil labelled human A-375 cells xenografted in Zebra fish AB assessed as suppression of tumor growth by measuring red fluorescence preincubated with compound followed by 365 nm light irradiation for 5 mins and measured after 48 hrs by fluorescence based analysis; type: functional, cell-based; conditions: dose 45-90 pM
[21] = target: Fibroblast growth factor receptor 1 (Homo sapiens) (UniProt P11362); assay: Inhibition of recombinant human FGFR1 at 1 uM
[22] = target: CYP3A4 (Homo sapiens, UniProt P08684); assay: Inhibition of CYP3A4 in human microsomes at 10 uM in the presence of NADPH relative to control; type: ADME, Microsome
[23] = target: CYP2C19 (Homo sapiens, UniProt P33261); assay: Inhibition of CYP2C19 in human microsomes at 10 uM in the presence of NADPH relative to control; type: ADME, Microsome
[24] = Selectivity ratio of GI50 for antiproliferative activity against human A-375 cells harboring BRAF V600E mutant in the absence of UV irradiation to GI50 for antiproliferative activity against human A-375 cells harboring BRAF V600E mutant in the presence of UV irradiation for 5 mins; type: functional
[25] = system: Serine/threonine-protein kinase B-raf (Homo sapiens), P15056 [V600E]; assay: Inhibition of recombinant human BRAF V600E mutant at 1 uM
[26] = system: A549; assay: Antiproliferative activity against human A549 cells harboring KRas […] mutant assessed as cell growth inhibition preincubated with compound for 1 hrs followed by UV irradiation for 5 mins and measured 72 hrs post compound treatment by CellTiter-Glo luminescent assay; type: functional; conditions: A549, light or radiation study
[27] = Stability in human blood plasma assessed as half-life; type: ADME, cell-free
[28] = system: A-375; assay: Antiproliferative activity against human A-375 cells harboring BRAF V600E mutant assessed as cell growth inhibition preincubated with compound for 1 hrs followed by UV irradiation for 3 mins and measured 72 hrs post compound treatment by CellTiter-Glo luminescent assay; type: functional; conditions: A-375, light or radiation study
[29] = target: Dual specificity mitogen-activated protein kinase kinase 2 (Homo sapiens) (UniProt P36507); assay: Inhibition of recombinant human MEK2 at 1 uM
[30] = system: A-375; assay: Inhibition of MEK/ERK/RSK signaling in human A-375 cells assessed as inhibition of RSK phosphorylation at 5 nM in the presence of 365 nm light irradiation for 30 sec to 5 min by Western blot analysis; type: cell-based
[31] = target: RAC-alpha serine/threonine-protein kinase (Homo sapiens) (UniProt P31749); assay: Inhibition of recombinant human AKT1 at 1 uM
[32] = system: A-375; assay: Inhibition of colony formation in human A-375 cells at 10 to 300 nM incubated for 10 days by crystal violet staining based analysis; type: functional, cell-based; conditions: dose 10-300 nM, time 10.0 day

T1 sequence (Q02750 whole entry): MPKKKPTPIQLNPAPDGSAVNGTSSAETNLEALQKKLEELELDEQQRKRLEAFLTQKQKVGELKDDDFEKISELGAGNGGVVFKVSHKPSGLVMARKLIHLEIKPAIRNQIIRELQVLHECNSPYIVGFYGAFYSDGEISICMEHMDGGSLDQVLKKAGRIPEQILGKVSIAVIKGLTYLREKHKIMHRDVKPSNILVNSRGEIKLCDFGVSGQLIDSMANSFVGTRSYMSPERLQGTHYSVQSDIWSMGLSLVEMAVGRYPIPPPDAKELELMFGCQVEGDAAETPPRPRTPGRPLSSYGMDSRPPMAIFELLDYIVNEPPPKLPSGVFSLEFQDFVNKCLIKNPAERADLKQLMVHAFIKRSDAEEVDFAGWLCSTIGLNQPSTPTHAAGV
Mitogen-activated protein kinase 3 (Homo sapiens), sequence (P27361 whole entry): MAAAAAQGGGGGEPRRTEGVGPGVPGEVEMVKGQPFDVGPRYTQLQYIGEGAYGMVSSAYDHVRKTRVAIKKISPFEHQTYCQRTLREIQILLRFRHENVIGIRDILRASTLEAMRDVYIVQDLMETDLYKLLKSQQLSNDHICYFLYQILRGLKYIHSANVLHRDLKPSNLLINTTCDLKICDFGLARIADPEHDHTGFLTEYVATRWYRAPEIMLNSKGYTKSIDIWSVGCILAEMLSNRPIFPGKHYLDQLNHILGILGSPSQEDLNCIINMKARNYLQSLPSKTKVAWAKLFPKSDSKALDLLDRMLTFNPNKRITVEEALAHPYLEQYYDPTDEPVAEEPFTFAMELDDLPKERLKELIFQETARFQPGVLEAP
Mitogen-activated protein kinase; ERK1/ERK2, sequence (P27361 whole entry, looked up): as the sequence (P27361 whole entry) above
Mitogen-activated protein kinase; ERK1/ERK2, sequence (P28482 whole entry, looked up): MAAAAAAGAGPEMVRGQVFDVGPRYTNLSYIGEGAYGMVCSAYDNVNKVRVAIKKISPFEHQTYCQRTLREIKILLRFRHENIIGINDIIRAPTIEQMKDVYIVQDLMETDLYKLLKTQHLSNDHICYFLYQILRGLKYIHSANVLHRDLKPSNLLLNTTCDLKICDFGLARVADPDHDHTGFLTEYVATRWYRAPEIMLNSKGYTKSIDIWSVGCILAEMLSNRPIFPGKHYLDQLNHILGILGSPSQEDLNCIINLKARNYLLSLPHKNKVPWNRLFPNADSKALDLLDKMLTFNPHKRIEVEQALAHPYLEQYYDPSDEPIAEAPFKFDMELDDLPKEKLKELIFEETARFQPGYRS
Dual specificity mitogen-activated protein kinase kinase 2 (Homo sapiens), sequence (P36507 whole entry): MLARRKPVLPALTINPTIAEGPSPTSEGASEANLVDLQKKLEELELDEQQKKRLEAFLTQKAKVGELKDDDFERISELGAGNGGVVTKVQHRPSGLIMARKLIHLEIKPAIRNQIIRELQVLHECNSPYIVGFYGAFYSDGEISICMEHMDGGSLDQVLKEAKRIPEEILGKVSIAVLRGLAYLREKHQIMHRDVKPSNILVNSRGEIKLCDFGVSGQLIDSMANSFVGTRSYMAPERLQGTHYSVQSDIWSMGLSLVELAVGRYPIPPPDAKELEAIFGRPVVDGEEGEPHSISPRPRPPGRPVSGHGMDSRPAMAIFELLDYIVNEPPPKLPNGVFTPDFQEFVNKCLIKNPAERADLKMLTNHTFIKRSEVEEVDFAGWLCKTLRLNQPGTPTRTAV
Serine/threonine-protein kinase B-raf (Homo sapiens), P15056 [V600E], sequence (P15056 whole entry V600E): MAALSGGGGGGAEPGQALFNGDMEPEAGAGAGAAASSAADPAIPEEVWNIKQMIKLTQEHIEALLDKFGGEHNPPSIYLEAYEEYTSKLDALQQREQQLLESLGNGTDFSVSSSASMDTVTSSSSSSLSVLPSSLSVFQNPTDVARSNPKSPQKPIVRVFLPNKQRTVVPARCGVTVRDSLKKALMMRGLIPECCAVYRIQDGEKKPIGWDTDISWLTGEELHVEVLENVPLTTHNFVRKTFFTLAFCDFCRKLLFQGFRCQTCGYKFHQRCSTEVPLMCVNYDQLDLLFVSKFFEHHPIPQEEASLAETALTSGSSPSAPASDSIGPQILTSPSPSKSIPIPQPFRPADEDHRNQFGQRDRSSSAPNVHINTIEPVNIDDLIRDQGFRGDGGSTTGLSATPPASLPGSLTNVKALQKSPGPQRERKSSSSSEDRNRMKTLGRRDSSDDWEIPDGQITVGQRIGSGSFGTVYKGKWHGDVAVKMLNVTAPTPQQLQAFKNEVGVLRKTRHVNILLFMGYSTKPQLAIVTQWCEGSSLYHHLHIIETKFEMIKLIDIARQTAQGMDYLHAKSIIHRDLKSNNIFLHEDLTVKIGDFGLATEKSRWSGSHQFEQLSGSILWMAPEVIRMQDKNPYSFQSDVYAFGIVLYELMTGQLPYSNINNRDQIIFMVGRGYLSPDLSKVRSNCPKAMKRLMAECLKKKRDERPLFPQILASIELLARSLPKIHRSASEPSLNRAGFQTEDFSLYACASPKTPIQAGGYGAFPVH
CYP3A4, sequence (P08684 whole entry): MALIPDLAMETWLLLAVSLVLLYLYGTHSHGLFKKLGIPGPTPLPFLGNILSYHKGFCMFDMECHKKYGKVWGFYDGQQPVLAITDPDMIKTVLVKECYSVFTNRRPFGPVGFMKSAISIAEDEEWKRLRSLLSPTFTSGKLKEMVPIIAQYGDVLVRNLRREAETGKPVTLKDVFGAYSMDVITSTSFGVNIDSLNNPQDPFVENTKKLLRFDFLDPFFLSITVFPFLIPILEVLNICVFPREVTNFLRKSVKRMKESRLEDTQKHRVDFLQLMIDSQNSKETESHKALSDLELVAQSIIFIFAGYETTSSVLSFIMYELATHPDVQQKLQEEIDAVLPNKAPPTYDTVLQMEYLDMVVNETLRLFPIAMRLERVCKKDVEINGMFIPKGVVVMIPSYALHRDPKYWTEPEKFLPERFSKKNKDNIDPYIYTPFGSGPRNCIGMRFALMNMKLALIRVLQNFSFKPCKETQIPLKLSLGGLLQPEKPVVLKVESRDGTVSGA
Serine/threonine-protein kinase B-raf (Homo sapiens), sequence (P15056 whole entry): as the sequence (P15056 whole entry V600E) above, with E600V counted along it
Fibroblast growth factor receptor 1 (Homo sapiens), sequence (P11362 22-822 limits assumed): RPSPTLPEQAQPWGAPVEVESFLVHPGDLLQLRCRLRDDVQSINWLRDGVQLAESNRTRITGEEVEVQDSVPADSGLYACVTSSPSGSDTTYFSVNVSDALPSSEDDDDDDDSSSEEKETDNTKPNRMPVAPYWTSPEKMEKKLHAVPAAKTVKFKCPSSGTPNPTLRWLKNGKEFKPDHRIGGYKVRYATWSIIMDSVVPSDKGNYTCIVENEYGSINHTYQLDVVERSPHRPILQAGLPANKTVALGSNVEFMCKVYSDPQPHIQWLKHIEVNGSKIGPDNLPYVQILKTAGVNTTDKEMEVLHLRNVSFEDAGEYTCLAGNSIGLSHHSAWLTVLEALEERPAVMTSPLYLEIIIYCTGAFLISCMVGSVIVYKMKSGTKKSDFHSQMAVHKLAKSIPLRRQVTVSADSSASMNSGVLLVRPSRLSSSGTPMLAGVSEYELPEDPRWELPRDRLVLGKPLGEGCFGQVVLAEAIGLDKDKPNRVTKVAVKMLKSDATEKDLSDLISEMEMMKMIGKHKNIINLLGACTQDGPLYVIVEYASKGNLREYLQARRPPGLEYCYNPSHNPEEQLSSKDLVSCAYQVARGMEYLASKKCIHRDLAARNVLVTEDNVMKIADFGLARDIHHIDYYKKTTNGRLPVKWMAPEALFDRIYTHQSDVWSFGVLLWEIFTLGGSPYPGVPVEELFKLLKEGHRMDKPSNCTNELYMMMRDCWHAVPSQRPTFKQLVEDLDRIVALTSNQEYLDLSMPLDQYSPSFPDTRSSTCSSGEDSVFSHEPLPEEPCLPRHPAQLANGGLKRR
CYP2C19, sequence (P33261 whole entry): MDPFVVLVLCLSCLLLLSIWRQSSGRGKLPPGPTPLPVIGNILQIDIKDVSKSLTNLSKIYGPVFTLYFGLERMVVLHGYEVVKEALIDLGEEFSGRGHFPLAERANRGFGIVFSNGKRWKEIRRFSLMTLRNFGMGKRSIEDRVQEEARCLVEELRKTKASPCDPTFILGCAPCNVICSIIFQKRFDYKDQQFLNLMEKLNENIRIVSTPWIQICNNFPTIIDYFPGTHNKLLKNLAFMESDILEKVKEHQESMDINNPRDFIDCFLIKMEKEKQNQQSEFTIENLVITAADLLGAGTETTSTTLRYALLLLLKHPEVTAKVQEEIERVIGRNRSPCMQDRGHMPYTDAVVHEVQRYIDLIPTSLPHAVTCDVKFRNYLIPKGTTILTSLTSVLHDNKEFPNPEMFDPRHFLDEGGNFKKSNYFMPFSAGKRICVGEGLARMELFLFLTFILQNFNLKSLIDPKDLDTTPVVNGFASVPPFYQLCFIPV
Ribosomal protein S6 kinase alpha-1 (Homo sapiens), sequence (Q15418 whole entry): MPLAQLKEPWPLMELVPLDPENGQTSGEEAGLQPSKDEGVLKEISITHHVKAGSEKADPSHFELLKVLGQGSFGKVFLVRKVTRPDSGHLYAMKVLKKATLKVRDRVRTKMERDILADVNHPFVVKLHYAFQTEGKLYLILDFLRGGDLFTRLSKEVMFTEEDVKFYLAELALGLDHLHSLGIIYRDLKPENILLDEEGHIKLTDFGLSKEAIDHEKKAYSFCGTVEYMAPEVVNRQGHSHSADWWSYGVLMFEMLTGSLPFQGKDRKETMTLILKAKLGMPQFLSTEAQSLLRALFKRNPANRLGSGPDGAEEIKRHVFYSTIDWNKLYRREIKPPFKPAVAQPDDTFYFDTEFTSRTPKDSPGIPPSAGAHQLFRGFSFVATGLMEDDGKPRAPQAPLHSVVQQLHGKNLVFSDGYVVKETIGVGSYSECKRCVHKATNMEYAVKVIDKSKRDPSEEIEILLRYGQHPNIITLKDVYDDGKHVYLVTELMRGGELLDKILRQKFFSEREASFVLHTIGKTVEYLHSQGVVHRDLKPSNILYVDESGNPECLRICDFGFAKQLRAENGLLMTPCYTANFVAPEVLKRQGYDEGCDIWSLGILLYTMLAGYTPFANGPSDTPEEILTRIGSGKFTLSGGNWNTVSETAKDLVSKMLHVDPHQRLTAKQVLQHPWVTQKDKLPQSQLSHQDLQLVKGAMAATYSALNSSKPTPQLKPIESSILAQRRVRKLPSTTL

COc1cc(C(C)O/C(=N\OC[C@H](O)CO)c2ccc(F)c(F)c2Nc2ccc(I)cc2F)c([N+](=O)[O-])cc1OC (some centres not stated)
inhibition [1]: inactive
Drug metabolism [2]: Metabolite_Detected
IC50 [3]: > 30000 nM
inhibition [4]: inactive
half-life [5]: 1.41 min
GI50 [6]: > 10000 nM
inhibition at 10 µM [7]: 0%
remaining at 1 h [8]: 13.6%
inhibition [9]: Active
CLint scaled [10]: 51.4 mL/min/kg
inhibition [11]: inactive
inhibition [12]: inactive
inhibition [13]: inactive
GI50 at 72 h [14]: > 10000 nM
inhibition [15]: inactive
fold change (FC) [16]: > 5085
GI50 [17]: 60 nM
inhibition [18]: inactive
half-life [19]: 24.2 min
Activity [20]: Dose-Dependent Effect
inhibition [21]: inactive
inhibition at 10 µM [22]: 92.4%
inhibition at 10 µM [23]: 44.6%
RatioGI50 [24]: >5000
inhibition [25]: inactive
GI50 [26]: 27.8 nM
half-life [27]: > 289 min
GI50 [28]: 2.95 nM
inhibition [29]: inactive
inhibition [30]: Active
inhibition [31]: inactive
inhibition [32]: inactive
